Data from patent US11781118B2, “Preparation of L-amino acid deaminase mutant and application thereof” (Jiangnan University, priority 2020, dated 2023).

Key:
[1] = biological target: Proteus mirabilis L-amino acid deaminase (PmirLAAD), wild-type parent, SEQ ID NO: 1 (Proteus mirabilis, UniProt Q51890); test: Product inhibition constant determination, parent enzyme PmirLAAD WT; type: biochemical; conditions: relative to WT
Description: (§1) In order to evaluate the mutants, kinetic parameters of the mutant parent PmirLAAD^WT and the mutants PmirLAAD^M1, PmirLAAD^M2, PmirLAAD^M3 and PmirLAAD^M4 at 25° C. were determined in the disclosure.
(§2) kcat/Km was calculated based on the initial rate of α-ketoisovaleric acid produced from hydrolyzed L-valine substrates with different concentrations determined at 25° C. Product inhibition of the parent enzyme and the mutants was determined by a product inhibition constant determination experiment in the transformation process. A PmirLAAD^WT parent enzyme strain and mutant strains were respectively added to a reaction solution with the final concentration of wet cells of 10 g/L. 60 mM L-valine was used as the substrate, 10-100 mM α-ketoisovaleric acid was added to the transformation system, the initial reaction rate V0 was determined after about 30 min of reaction, the maximum reaction rate Vmax was determined after about 2 h of reaction, and the product inhibition constant KPI was calculated according to the following formula: […]
(§3) V0: initial reaction rate, Vmax: maximum reaction rate, Km: Michaelis constant, [S]: substrate concentration, [P]: product concentration, KPI: product inhibition constant.

[2] = tested on: Proteus mirabilis L-amino acid deaminase (PmirLAAD) mutant M3, S98A/T105A/S106A, SEQ ID NO: 13; test: Product inhibition constant determination, mutant M3; type: biochemical; conditions: M3 relative to WT
Description: as §1, §2, §3

[3] = tested on: Proteus mirabilis L-amino acid deaminase (PmirLAAD) mutant M1, S98A, SEQ ID NO: 3; test: Product inhibition constant determination, mutant M1; type: biochemical; conditions: M1 relative to WT
Description: as §1, §2, §3

[4] = tested on: Proteus mirabilis L-amino acid deaminase (PmirLAAD) mutant M4, S98A/T105A/S106A/L341A, SEQ ID NO: 15; test: Product inhibition constant determination, mutant M4; type: biochemical
Description: as §1, §2, §3

[5] = biological target: Proteus mirabilis L-amino acid deaminase (PmirLAAD) mutant M2, S98A/T105A, SEQ ID NO: 11 (Proteus mirabilis, UniProt Q51890, S98A/T105A); test: Product inhibition constant determination, mutant M2; type: biochemical; conditions: M2 relative to WT
Description: as §1, §2, §3

[6] = biological target: Proteus mirabilis L-amino acid deaminase (PmirLAAD) mutant M4, S98A/T105A/S106A/L341A, SEQ ID NO: 15 (Proteus mirabilis, UniProt Q51890, L341A/S106A/S98A/T105A); test: Kinetic parameters with L-valine as substrate, mutant M4; type: biochemical; conditions: M4 compared with parent enzyme, "increased by", 25° C.
Description: as §1, §2

CC(C)[C@H](N)C(=O)O = test: Kinetic parameters with L-valine as substrate, parent enzyme PmirLAAD WT; type: biochemical, Proteus mirabilis; conditions: other: L-valine substrate, 25° C., initial rate of α-ketoisovaleric acid
Description: as §1, §2

[7] = Shake flask screening of mutants: whole-cell transformation of L-valine, α-ketoisovaleric acid determined by HPLC; type: cell-based, E. coli BL21; conditions: transformation temperature 25° C., pH 8.0, 24 h
Description: Preparation of sample for determining α-ketoisovaleric acid content by HPLC: 1 mL of a transformed transformation solution is centrifuged at 12000 rpm for 5 min, the supernatant is diluted and filtered through a 0.45 μm filtration membrane, and the filtrate is for liquid chromatography.
Determination of α-ketoisovaleric acid content by HPLC: a waters high performance liquid chromatograph (equipped with a UV-visible detector) and a Bio-Rad Aminex HPX-87H (300×7.8 mm, 9 μm) chromatographic column are used, and the mobile phase is dilute sulfuric acid with the concentration of 2.5 mmol/L. The mobile phase is filtered through a 0.22 μm filtration membrane; the filtrate is subjected to ultrasonic degassing; and detection is performed at the flow rate of 0.6 mL/min, the column temperature of 35° C. and the ultraviolet detection wavelength of 210 nm.
(2) Shake flask screening of single mutants: The obtained 4 mutant strains and a strain containing wild-type L-amino acid deaminase were respectively inoculated into an LB seed medium, and cultured at 200 rpm at 37° C. for about 10 h. The products were respectively inoculated into a shake flask fermentation medium with the inoculum size of 5% of the medium by volume, and cultured at 200 rpm at 37° C. until OD600 was about 0.8. IPTG with the final concentration of 0.04 mmol/L was added for induction, and the induction was performed at 200 rpm at 25° C. for 14 h. The product was centrifuged at 6000 rpm for 8 min to collect bacterial cells. The bacterial cells collected by centrifugation were used for later transformation experiments.
Transformation conditions: transformation temperature 25° C., reaction pH 8.0, and transformation time 24 h.
The yield of α-ketoisovaleric acid of the transformation solution after the completion of the transformation was determined by HPLC. Finally, S98A produced α-ketoisovaleric acid at the highest yield.

Sequence of Proteus mirabilis L-amino acid deaminase (PmirLAAD) mutant M2, S98A/T105A, SEQ ID NO: 11 (Q51890 whole entry S98A/T105A): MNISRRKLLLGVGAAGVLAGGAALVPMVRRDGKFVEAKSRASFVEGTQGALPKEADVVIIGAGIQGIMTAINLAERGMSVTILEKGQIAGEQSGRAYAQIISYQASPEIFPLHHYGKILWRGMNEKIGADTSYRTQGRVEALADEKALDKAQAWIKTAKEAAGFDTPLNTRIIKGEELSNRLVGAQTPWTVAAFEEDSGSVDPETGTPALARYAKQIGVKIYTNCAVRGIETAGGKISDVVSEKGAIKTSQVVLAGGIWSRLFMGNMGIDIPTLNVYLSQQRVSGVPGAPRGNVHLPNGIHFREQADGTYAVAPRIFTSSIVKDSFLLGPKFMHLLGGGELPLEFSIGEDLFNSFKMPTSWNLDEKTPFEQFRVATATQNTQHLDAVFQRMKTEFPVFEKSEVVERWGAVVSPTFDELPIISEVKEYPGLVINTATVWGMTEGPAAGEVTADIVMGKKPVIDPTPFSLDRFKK
Sequence of Proteus mirabilis L-amino acid deaminase (PmirLAAD) mutant M4, S98A/T105A/S106A/L341A, SEQ ID NO: 15 (Proteus mirabilis, UniProt Q51890, L341A/S106A/S98A/T105A) (Q51890 whole entry S98A/T105A/S106A/L341A): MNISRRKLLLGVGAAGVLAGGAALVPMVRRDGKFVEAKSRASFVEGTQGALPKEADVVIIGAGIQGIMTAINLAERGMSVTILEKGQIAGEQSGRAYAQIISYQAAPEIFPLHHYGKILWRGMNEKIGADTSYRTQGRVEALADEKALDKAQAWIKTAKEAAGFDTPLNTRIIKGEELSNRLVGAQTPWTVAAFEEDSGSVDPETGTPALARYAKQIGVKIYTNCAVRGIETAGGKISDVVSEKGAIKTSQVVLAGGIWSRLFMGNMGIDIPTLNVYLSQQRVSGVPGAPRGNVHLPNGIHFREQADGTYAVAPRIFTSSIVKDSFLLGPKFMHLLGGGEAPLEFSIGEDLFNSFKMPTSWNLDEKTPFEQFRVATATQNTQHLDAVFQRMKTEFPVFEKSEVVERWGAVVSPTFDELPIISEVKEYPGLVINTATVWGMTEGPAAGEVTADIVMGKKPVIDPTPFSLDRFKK
Sequence of Proteus mirabilis L-amino acid deaminase (PmirLAAD), wild-type parent, SEQ ID NO: 1 (Q51890 entry or part of it): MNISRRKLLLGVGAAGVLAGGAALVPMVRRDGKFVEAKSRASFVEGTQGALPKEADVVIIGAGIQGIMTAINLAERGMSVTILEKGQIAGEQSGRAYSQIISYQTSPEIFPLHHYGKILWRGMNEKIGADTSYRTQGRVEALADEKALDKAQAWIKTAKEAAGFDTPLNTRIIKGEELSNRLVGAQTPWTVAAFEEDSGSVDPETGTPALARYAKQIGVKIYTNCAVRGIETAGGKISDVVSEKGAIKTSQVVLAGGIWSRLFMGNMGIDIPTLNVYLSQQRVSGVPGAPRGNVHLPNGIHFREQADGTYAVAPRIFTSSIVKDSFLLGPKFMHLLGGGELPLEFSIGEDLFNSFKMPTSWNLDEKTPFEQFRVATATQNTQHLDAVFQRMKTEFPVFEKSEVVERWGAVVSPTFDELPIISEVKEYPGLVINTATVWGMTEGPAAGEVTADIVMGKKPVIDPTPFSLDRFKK

## CC(C)C(=O)C(=O)O [α-ketoisovaleric acid]
[1]
  Times of change (KPI): 1
[2]
  Times of change (KPI): 4.6
[3]
  Times of change (KPI): 2.6
[4]; M4 compared with parent enzyme, "increased by"
  increase of product inhibition constant: 5.7 times
[4]; M4 relative to WT
  Times of change (KPI): 6.7
[5]
  Times of change (KPI): 3.9

## CC(C)[C@H](N)C(=O)O [L-valine]
[6]
  increase of kcat/Km (catalytic efficiency): 5.2 times

## Proteus mirabilis L-amino acid deaminase (PmirLAAD), wild-type parent, SEQ ID NO: 1 (Proteus mirabilis)
CC(C)[C@H](N)C(=O)O
  kcat/Km: 4.33 M⁻¹ s⁻¹

B1: PmirLAAD^S98A/T105A/S106A (protein)
chain: MNISRRKLLLGVGAAGVLAGGAALVPMVRRDGKFVEAKSRASFVEGTQGALPKEADVVIIGAGIQGIMTAINLAERGMSVTILEKGQIAGEQSGRAYAQIISYQAAPEIFPLHHYGKILWRGMNEKIGADTSYRTQGRVEALADEKALDKAQAWIKTAKEAAGFDTPLNTRIIKGEELSNRLVGAQTPWTVAAFEEDSGSVDPETGTPALARYAKQIGVKIYTNCAVRGIETAGGKISDVVSEKGAIKTSQVVLAGGIWSRLFMGNMGIDIPTLNVYLSQQRVSGVPGAPRGNVHLPNGIHFREQADGTYAVAPRIFTSSIVKDSFLLGPKFMHLLGGGELPLEFSIGEDLFNSFKMPTSWNLDEKTPFEQFRVATATQNTQHLDAVFQRMKTEFPVFEKSEVVERWGAVVSPTFDELPIISEVKEYPGLVINTATVWGMTEGPAAGEVTADIVMGKKPVIDPTPFSLDRFKK
[7]
  α-ketoisovaleric acid: 60.6 g/L

B2: PmirLAAD^S98A/S106A/L341A (protein)
chain: MNISRRKLLLGVGAAGVLAGGAALVPMVRRDGKFVEAKSRASFVEGTQGALPKEADVVIIGAGIQGIMTAINLAERGMSVTILEKGQIAGEQSGRAYAQIISYQTAPEIFPLHHYGKILWRGMNEKIGADTSYRTQGRVEALADEKALDKAQAWIKTAKEAAGFDTPLNTRIIKGEELSNRLVGAQTPWTVAAFEEDSGSVDPETGTPALARYAKQIGVKIYTNCAVRGIETAGGKISDVVSEKGAIKTSQVVLAGGIWSRLFMGNMGIDIPTLNVYLSQQRVSGVPGAPRGNVHLPNGIHFREQADGTYAVAPRIFTSSIVKDSFLLGPKFMHLLGGGEAPLEFSIGEDLFNSFKMPTSWNLDEKTPFEQFRVATATQNTQHLDAVFQRMKTEFPVFEKSEVVERWGAVVSPTFDELPIISEVKEYPGLVINTATVWGMTEGPAAGEVTADIVMGKKPVIDPTPFSLDRFKK
[7]
  α-ketoisovaleric acid: 53.5 g/L

B3: PmirLAAD^T105A/S106A/L341A (protein)
chain: MNISRRKLLLGVGAAGVLAGGAALVPMVRRDGKFVEAKSRASFVEGTQGALPKEADVVIIGAGIQGIMTAINLAERGMSVTILEKGQIAGEQSGRAYSQIISYQAAPEIFPLHHYGKILWRGMNEKIGADTSYRTQGRVEALADEKALDKAQAWIKTAKEAAGFDTPLNTRIIKGEELSNRLVGAQTPWTVAAFEEDSGSVDPETGTPALARYAKQIGVKIYTNCAVRGIETAGGKISDVVSEKGAIKTSQVVLAGGIWSRLFMGNMGIDIPTLNVYLSQQRVSGVPGAPRGNVHLPNGIHFREQADGTYAVAPRIFTSSIVKDSFLLGPKFMHLLGGGEAPLEFSIGEDLFNSFKMPTSWNLDEKTPFEQFRVATATQNTQHLDAVFQRMKTEFPVFEKSEVVERWGAVVSPTFDELPIISEVKEYPGLVINTATVWGMTEGPAAGEVTADIVMGKKPVIDPTPFSLDRFKK
[7]
  α-ketoisovaleric acid: 59.6 g/L

B4: PmirLAAD^S98A/T105A/L341A (protein)
chain: MNISRRKLLLGVGAAGVLAGGAALVPMVRRDGKFVEAKSRASFVEGTQGALPKEADVVIIGAGIQGIMTAINLAERGMSVTILEKGQIAGEQSGRAYAQIISYQASPEIFPLHHYGKILWRGMNEKIGADTSYRTQGRVEALADEKALDKAQAWIKTAKEAAGFDTPLNTRIIKGEELSNRLVGAQTPWTVAAFEEDSGSVDPETGTPALARYAKQIGVKIYTNCAVRGIETAGGKISDVVSEKGAIKTSQVVLAGGIWSRLFMGNMGIDIPTLNVYLSQQRVSGVPGAPRGNVHLPNGIHFREQADGTYAVAPRIFTSSIVKDSFLLGPKFMHLLGGGEAPLEFSIGEDLFNSFKMPTSWNLDEKTPFEQFRVATATQNTQHLDAVFQRMKTEFPVFEKSEVVERWGAVVSPTFDELPIISEVKEYPGLVINTATVWGMTEGPAAGEVTADIVMGKKPVIDPTPFSLDRFKK
[7]
  α-ketoisovaleric acid: 56.1 g/L
